From patent US6710075B2, “Therapeutic compounds and methods” (The Government of the State of Sarawak, Malaysia, priority 2000, dated 2004)
pIC50: −log10 of the molar value. Where two headings read alike, the source gives them in different places.

Key:
THP-1 cells [1] = assay: WST-1 reduction by THP-1 cells; format: cell-based, human; details: Homo sapiens
Text: (§1) (a) Compounds A and B were identified from a bark sample of Aglaia leptantha through their ability to inhibit production of Tumour Necrosis Factor-α (TNF-α) by THP-1 human promonocytic leukemia cells (Tsuchiya, et al, Int. J. Cancer, 1980, 26(2):171-6) activated with lipopolysaccharide (LPS). Table 4 summarises the results comparing the activity of Compounds A and B for inhibition of TNF-α production to their effects on general cell metabolism measured using WST-1 reduction, DNA synthesis and protein synthesis assays for THP-1 cells. […] For comparison, the effects of Compounds A and B on A549 lung epithelial carcinoma cells (Leiber et al, Int. J. Cancer, 1976, 17(1)-62-70) were also measured and the data is also included in Table 4.

THP-1 cells [2] = assay: DNA synthesis, [14C]-thymidine uptake, THP-1 cells; format: cell-based, human; details: 48 hours
Text: as §1

[3] = tested on: Intercellular Adhesion Molecule-1 (ICAM-1); assay: IL-1-induced ICAM-1 surface expression by A549 cells (Delfia); format: cell-based, human; details: 24 hours, read-out: IC50 ICAM-1 Production
Text: as §1

A549 = assay: Cytostatic activity, relative cell number by YOYO-1 DNA dye; format: cell-based, human
Procedure: (b) Compound A was assessed for cytotoxic and cytostatic activity against a panel of cell lines derived from a variety of human tumour types in addition to THP-1 and A549 cells (Table 5). These included K562 leukemic cells (Lozzio and Lozzio, 1975, Blood 45:321-34), PC3 prostate tumour cells (Kaighn et al., 1979, Invest. Urol. 17:16-23) and SF268 glioblastoma cells (Westphal et al, 1985, Biochem. Biophys. Res. Commun., 132:284-9). […] However, the cytotoxic potency of Compound A increased dramatically after 6 days of culture for the K562, A549 and SF268 cells.

[4] = tested on: THP-1 monocytic leukemia cells; assay: Differentiation of THP-1 leukemic cells, morphology by phase contrast microscopy; format: cell-based, human; details: THP-1, 10 nM, prolonged exposure (4 days)
Procedure: THP-1 cells were cultured for 4 days in the presence or absence of 10 nM Compound A as indicated. Where shown cells were also treated with IFNγ (100 ng/ml) (3 days) or with PMA (0.1 μM) (4 days) in the presence or absence of Compound A. Images are of cells visualised by phase contrast microscopy (magnification×200).
This is a morphology highly characteristic of mature macrophages and similar morphological effects were observed when the cells were treated with other known inducers of macrophage differentiation including interferon-γ (IFNγ) or phorbol 12-myristate 13-acetate (PMA). To investigate this further the effects of Compound A on HL60 human promyelocytic leukemic cells (Collins, et al, Nature, 1977, 270:347-9) were examined (Table 11). This widely used cell line is well characterised as a model of human myelomonocytic differentiation (Collins, Blood, 1987, 70(5):1233-44). In this experiment monocytic differentiation was quantitated by measuring CD14 surface antigen expression by flow cytometric analysis CD14, all LPS-binding protein, is expressed on the surface of cells of the myelomonocytic lineage and is normally expressed at very low levels in undifferentiated HL60 cells (Ferrero et al., Blood, 1983, 61(1):171-9).

K562 leukemic cells = assay: DNA content analysis (cell cycle) of K562 leukemic cells; format: cell-based, human; details: K562, 10-15 nM, 3 days
Procedure: K562 cells were cultured for 3 days with the indicated concentration of Compounds A or B then collected and fixed in 70% ethanol prior to staining with propidium iodide and DNA content determined by flow cytometry. The numbers indicate the % of cells in G0/G1, S and G2/M phases of the cell cycle respectively relative to all cells with ≧2N DNA content.

A549 cells = assay: Effect on cell cycle arrest and cell death induced by anti-cancer agents, DNA content analysis; format: cell-based
Procedure: A549 cells in 6 well plates were cultured for 3 days in the presence or absence of 10 nM Compound A together with 0.1 μM camptothecin, 10 μM vinblastin, 1 μM paclitaxel or 1 μM staurosporine as indicated. The cells were then collected and fixed in 70% ethanol prior to staining with propidium iodide and DNA content determined by flow cytometry. The numbers indicate the % of cells in the various cell cycle phases relative to all cells with ≧2N DNA content and also the % dead cells (ie. subdiploid ≦2N cells) to the left of the dotted marker that arose during the culture period.
This was examined in more detail using DNA content analysis to specifically measure cell cycle progression and cell death. In this experiment in addition to camptothecin and paclitaxel cells were also treated with vinblastin (another microtubule inhibitor) (Sorger et al., 1997, supra) and staurosporine (a kinase inhibitor) (Gescher, Crit Rev Oncol Hematol., 2000, 34(2):127-35).

[5] = tested on: PC3 human prostate tumour cells; assay: Mouse xenograft tumour model; format: in vivo; details: 3 mg/kg intraperitoneal three times a week
Procedure: Athymic Balb/c nude mice (Rygard and Povisen, 1969, Acta Pathol Microbiol Scand, 77: 758) were inoculated subcutaneously in the dorsal flank with 2×10^6 PC3 cells. Compound A was administered (3 mg/kg) after eight days when the tumours became palpable by intraperitoneal injection three times a week. Compound A was first solubilized in ethanol then mixed 1:1 with cremaphore and diluted in saline for injection. Control animals were treated in an analogous manner with the same vehicle but lacking Compound A. (A) Effect of Compound A on mean tumour volume. Tumour volumes were measured using a micrometer caliper at the indicated times. The data represents mean tumour volume ±SEM (B) Effect of Compound A on mean tumour mass. At the end of the experiment (29 days post inoculation of PC3 cells) the mice were sacrificed, the tumours excised and then weighed. The data represents mean tumour weight ±SEM.
The ability of Compound A to inhibit growth of human tumour cells in vivo was assessed using male athymic mice injected subcutaneously in the dorsal flank region with 2×10^6 PC3 human prostate tumour cells. Compound A administration (3 mg/kg) by intraperitoneal injection commenced after eight days once the PC3 tumour was palpable and continued three times a week until 29 days after the initial inoculation of the tumour cells. At this time all mice were killed and tumours excised and weighed.

COC(=O)[C@H]1[C@@H](O)[C@@]2(O)c3c(OC)cc(OC4OC(C(O)CO)COC4OC)cc3O[C@@]2(c2ccc(OC)cc2)[C@@H]1c1ccccc1 (single isomer, unassigned) [Compound A]
pIC50 (THP-1 cells [1]; THP-1, 18 h, THP-1 cells, 18 hours of culture, read-out: IC50 WST-1 Reduction): 7.52
pIC50 (THP-1 cells [1]; THP-1, 72 h, THP-1 leukemic cells, cultured with compound for 3 days, read-out: IC50 (reduction of WST-1)): 8.70
pIC50 (THP-1 cells [2]): 7.82
pIC50 [3]: 5.70
GI50 (A549; Homo sapiens, A549, 72 h, read-out: GI50 (3 day cultures), A549, lung): 0.007 µM
GI50 (A549; read-out: GI50 (3 day cultures), A549, lung): 0.013 µM
morphology (macrophage differentiation) [4]: accumulation of cells that adhered to the plastic and exhibited numerous pseudopodia
cell cycle phase accumulation (K562 leukemic cells): characteristic accumulation of cells in G2/M phases of the cell cycle
cell cycle distribution and cell death (A549 cells; A549, 10 nM Compound A alone, three days): a minor decrease in cells in G0/G1 with a slight increase in G2/M phase cells with no detectable increase in cell death
effect on cytotoxicity of staurosporine (A549 cells; A549, 10 nM Compound A with 1 μM staurosporine, 3 days): little effect on the cytotoxic effects of staurosporine
effect on cell cycle arrest and cytotoxicity of camptothecin, vinblastin and paclitaxel (A549 cells; A549, 10 nM Compound A, 3 days): prevented their characteristic cell cycle arrest and significantly inhibited their cytotoxic effects
reduction of mean tumour weight ([5]; 29 days post inoculation): ~60%
mean tumour volume ([5]; vs vehicle): greatly reduced increase in mean tumour volume
